Assay results as given in publication PMC5510229, “BCAT1 controls metabolic reprogramming in activated human macrophages and is associated with inflammatory diseases” (Nature Communications, 2017).

What was measured:
[1] = test system: human monocyte-derived macrophages (hMDMs); assay: Itaconate and citrate measurement by GC/MS in hMDMs; format: cell-based
Procedure: Figure 1 BCAT1 expression and inhibition in human macrophages. […] (b) Chemical structure of ERG240 and leucine. (c) Enzymatic activity of recombinant human BCAT1 and BCAT2 in presence of ERG240. (d) Relative expression of IRG1, HIF1A and IL1B measured by qRT-PCR in control, ERG240-treated (20 mM, 3 h), LPS treated (100 ng ml^−1, 3 h), and LPS+ERG240 treated (LPS, 100 ng ml^−1; ERG240, 20 mM for 3 h) hMDMs. ns, non-significant. All expression values are normalized to those obtained for HPRT gene expression. n=3 healthy donor hMDMs were used in each group. […]
For itaconate, cells pellets containing 1.5 × 10^6 hMDMs were quenched with 400 μl of methanol, previously chilled at −20 °C. […] After a brief centrifugation, derivatized metabolites were transferred into clean GC/MS vials and analysed for the presence of itaconic acid (itaconate) using a 7890A GC System (Agilent Technologies) equipped with an Agilent J&W DB-5ms column (30 m, 0.25 mm, 0.25 μm), connected to an 5975C Triple-Axis MS Detector (Agilent Technologies) and outfitted with an autosampler. […] The amount of itaconate present in the sample was determined after peak integration. […] The GC/MS was performed by Biocrates (BIOCRATES Life Sciences AG, Innsbruck, Austria) and the citrate quantification was performed using their commercially available Kit plates, according to the manufacturer’s instructions. […]

Water solubility = format: physicochemical

Q: For `CC(=O)C(C)CCC(=O)O` (stereo not drawn) [ERG240], which “citrate levels by GC/MS” value ([1]; LPS 3 h 100 ng/ml + ERG240 vs LPS) is on record?
A: Its value is “further significantly increased”.

Q: And the “itaconate levels measured by GC/MS” value ([1]; LPS 8 h 100 ng ml^−1, ERG240 20 mM)?
A: The value was “decreased itaconate levels”.

Q: And the water solubility (Water solubility)?
A: Its water solubility is “water-soluble”.
